Paper PMC13050480, “Preclinical Development of GT-14, a Novel Inhibitor of Gαi2 Protein: Comprehensive Evaluation of Physicochemical, Metabolic Characteristics and Tissue Distribution” (The AAPS journal, 2025)
≈ marks a conversion by molar mass, not a printed value. Where “and” joins values, the source holds several entries; their conditions need not be identical. Equal values may be shown once. Entries after “also recorded” stand apart in the source; their conditions may differ. Read-outs that look alike come from different tables or passages of the source.

Experiments:
[1] = Ionization constant (pKa) determination, Pion Sirius T3, UV-metric and Fast UV titration; assay type: physicochemical; conditions: for pKa: 0.15 M KCl solution, 0.15 M KCl, 25 ± 1°C
Protocol: The Ionization constant of GT-14 was determined using the Pion Sirius T3 apparatus (Sirius Analytical Instruments Ltd., East Sussex, UK). It has an Ag/AgCl double junction reference pH electrode, a Sirius ±D-PAS spectrometer and a turbidity sensing device. The titration experiments were conducted in 0.15 M KCl solution under an argon atmosphere at a temperature of 25 ± 1°C. All tests were performed using standardized 0.5 M KOH and 0.5 M HCl as titration reagents. pKa value was measured using UV-metric and Fast UV titration methods.

[2] = Solubility in different solvents, shake-flask method; assay type: physicochemical; conditions: room temperature
Protocol: Solubility of GT-14 was assessed in different solvents, namely, water, ethanol, PEG 300, PEG 400, propylene glycol, DMSO, DMA, olive oil, soybean oil, Labrasol and Labrafac, by the shake-flask method. Briefly, an excess amount of GT-14 was added to each of the selected solvents in a scintillation vial. The vials were allowed to shake on a mechanical reciprocating shaker at room temperature for 24 h to achieve solvent saturation. The samples were then centrifuged at 15,000 rpm for 15 min at room temperature. The supernatant with dissolved GT-14 was separated from the pellet of the undissolved compound. It was then diluted and analyzed by UPLC to determine the concentration of GT-14. All experiments were conducted in triplicates.

[3] = pH-dependent stability in USP buffers; assay type: physicochemical; conditions: 25°C
Protocol: The pH-dependent stability of GT-14 was assessed in aqueous media of pH ranging from 1 to 10 at room temperature. Standard USP buffers ([11]) were prepared and used for this experiment. Details of buffer solutions are provided in Table I. For the pH solubility profile, GT-14 solid was added in excess amounts in various buffer solutions.
To determine the stability of GT-14 in different buffers, GT-14 stock solution (prepared in ACN at a concentration of 75 μg/mL) was added to different buffers to achieve a target concentration of 5 μg/mL. Each buffer solution was prepared in triplicate. All solutions were put on the shaker bath maintained at 25°C. Aliquots were withdrawn at predetermined time points (0, 24, 72, 96, and 120 hrs), centrifuged at 15,000 rpm for 10 min, diluted with Water: ACN (50:50, v/v), and analyzed by the UPLC assay.

[4] = Cosolvent formulation: solubility, saline dilution and storage stability; assay type: physicochemical; conditions: for solubility: organic solvent or mixture
Protocol: Co-solvent systems with various compositions and ratios of PEG 400, PEG 300, and propylene glycol were prepared to solubilize 5–10 mg/mL of GT-14. Each system was diluted with normal saline at different ratios of 1:1, 1:3, 1:7, and 1:15 (v/v) and observed for signs of precipitation for 4 h. The cosolvent system with maximum solubility and aqueous tolerance was tested for stability at different temperatures (−20°C, 4°C, and room temperature) in amber glass vials for up to a month. Samples were aliquoted at different time points and analyzed with UPLC.

[5] = Phase I biotransformation in rat liver microsomes; assay type: in vitro ADME; conditions: rat, 60 min incubation
Protocol: (§1) The in vitro phase I reaction was conducted using rat liver microsome, which contain the cytochrome P450 monooxygenases that catalyze oxidation, reduction, or hydrolysis reactions to introduce or expose functional groups on the substrate. NADPH is the cofactor to provide the reducing equivalents required for enzymatic activity, while the cofactor regeneration systems (NADP^+, glucose-6-phosphate, and glucose-6-phosphate dehydrogenase) maintain a sustained supply of NADPH during the reaction to facilitate the metabolite, Potassium phosphate buffer (KPI) mimics physiological conditions. The components were added to microcentrifuge tubes in the following order: The stock solution GT-14 (5 μL, 1 mM) was pre-incubated with rat liver microsomes (12.5 μL, 20 mg/mL, Corning Inc.) at 37°C in KPI buffer(452.5 μL, 50 mM) for 5 min before the reaction was initiated by the addition of an NADPH regenerating system, which consisted of 25μL of solution A1(1.3 mM NADP+, 3.3 mM glucose-6-phosphate, 3.3 mM magnesium chloride), and 5μL of solution B1 (0.5 units/mL glucose-6-phosphate dehydrogenase). Reaction mixtures were incubated at 37 °C in a shaker bath, shaking at 100 rpm. […] The quenched samples were vortexed, centrifuged (14,000 rpm for 15 min) and analyzed by UPLC.

rat liver microsomes = experiment: Phase I biotransformation in rat liver microsomes; assay type: in vitro ADME; conditions: NADPH regenerating system, 37°C
Protocol: as §1

[6] = Stability of GT-14 in rat urine; assay type: in vitro ADME; conditions: for Stability at -20 °C (48 hrs) in rat urine: n=5, in %
Protocol: Blank rat urine was spiked with GT-14 at conc. of 25, 50, 500 and 1000 ng/mL. The samples were kept at -20°C for 48 hours (n=5, Mean ± SD)

DU145 = test system: DU145; set-up: method as in PMID 32575572; conditions: cited from earlier work
LNCaP cells = test system: LNCaP cells; set-up: method as in PMID 38254786; conditions: simultaneous treatment; cited from earlier work

C/C(=N\c1ccc(O)cc1)c1cc2ccccc2n1C [GT-14, (E)-4-((1-(1-methyl-1H-indol-2-yl)ethylidene)amino)phenol]
pKa ([1]; read-out: pKa (printed as acidic pKa, nitrogen of the imine group)): 3.46 ± 0.014
pKa ([1]; read-out: pKa (printed as basic pKa, phenolic group)): 10.5 ± 0.4
isoelectric point (pI) ([1]; pI=(pKa acid+pKa base)/2): approximately 7.0
solubility at 24 h ([2]; DMA, thermodynamic from solid, n=3, read-out: Solubility in DMA): 107000 µg/mL (≈ 406 mM)
solubility at 24 h ([2]; DMSO, thermodynamic from solid, n=3, read-out: Solubility in DMSO): 80000 µg/mL (≈ 303 mM)
solubility at 24 h ([2]; Labrafac CC (Labrafac Lipophile WL1349), thermodynamic from solid, n=3, read-out: Solubility in Labrafac CC (Labrafac Lipophile WL1349)): 8600 µg/mL (≈ 32.5 mM)
solubility at 24 h ([2]; Labrasol, thermodynamic from solid, n=3, read-out: Solubility in Labrasol): 8100 µg/mL (≈ 30.6 mM)
solubility at 24 h ([2]; PEG 300, thermodynamic from solid, n=3, read-out: Solubility in PEG 300): 17200 µg/mL (≈ 65.1 mM)
solubility at 24 h ([2]; PEG 400, thermodynamic from solid, n=3, read-out: Solubility in PEG 400): 11300 µg/mL (≈ 42.7 mM)
solubility at 24 h ([2]; olive oil, thermodynamic from solid, n=3, read-out: Solubility in olive oil): 11400 µg/mL (≈ 43.1 mM)
solubility at 24 h ([2]; propylene glycol, thermodynamic from solid, n=3, read-out: Solubility in propylene glycol): 5300 µg/mL (≈ 20.1 mM)
Solubility in DMA ([2]; 24 h, n=3): freely soluble
Solubility in DMSO ([2]; 24 h, n=3): freely soluble
Solubility in Labrafac CC (Labrafac Lipophile WL1349) ([2]; 24 h, n=3): slightly soluble
Solubility in PEG 300 ([2]; 24 h, n=3): sparingly soluble
Solubility in PEG 400 ([2]; 24 h, n=3): sparingly soluble
Solubility in olive oil ([2]; 24 h, n=3): sparingly soluble
Solubility in propylene glycol ([2]; 24 h, n=3): slightly soluble
Solubility in soybean oil ([2]; 24 h, n=3): slightly soluble
Solubility in water ([2]; 24 h, n=3): very slightly soluble
solubility at 24 h ([2]; soybean oil, thermodynamic from solid, n=3, read-out: Solubility in soybean oil): 7800 µg/mL (≈ 29.5 mM)
solubility at 24 h ([2]; water, n=3, read-out: Solubility in water): 110 µg/mL (≈ 0.416 mM)
pH stability (in words) ([3]; acidic to neutral pH 1.2–7.4, 120 hours): relatively stable
pH stability (in words) ([3]; alkaline pH 9–10, 120 hours): significant degradation; also recorded: degrading; also recorded: degradation is significantly pronounced
pH stability, % remaining ([3]; pH 1.2–7.4, up to 120 hours): > 90% remaining
Percentage Recovery, cosolvent formulation ([4]; 4°C, Day 7): 101.09 ± 2.19%
Percentage Recovery, cosolvent formulation ([4]; 4°C, Day 15): 99.14 ± 0.32%
Percentage Recovery, cosolvent formulation ([4]; 4°C, Day 30): 98.83 ± 0.15%
solubility ([4]; PEG300: PEG400: Propylene glycol (1:1:1), PEG300: PEG400: Propylene glycol, ratio 1:1:1, read-out: Solubility in cosolvent formulation): 6000 µg/mL
solubility ([4]; PEG300: PEG400: Propylene glycol (3:2:2 v/v), optimum, PEG300: PEG400: Propylene glycol, ratio 3:2:2 v/v, read-out: Solubility in cosolvent formulation (optimum)): 8000 µg/mL
increase of solubility in optimum cosolvent formulation over water solubility ([4]; PEG 300:PEG 400:propylene glycol 3:2:2): over 70 times
solubility ([4]; PEG 400: Propylene glycol: Tween 80 (2:1:0.25), PEG 400: Propylene glycol: Tween 80, ratio 2:1:0.25, read-out: Solubility in cosolvent formulation): 5000 µg/mL
Percentage Recovery, cosolvent formulation ([4]; Room Temperature, Day 7): 93.4% and 93.37± 0.76%
Percentage Recovery, cosolvent formulation ([4]; Room Temperature, Day 15): 91.18 ± 0.38%
Percentage Recovery, cosolvent formulation ([4]; Room Temperature, Day 30): 90.88 ± 0.07%
precipitation on dilution of cosolvent formulation with saline ([4]; optimum cosolvent formulation, several ratios of saline): No precipitation was observed till a 10X dilution with saline
appearance of cosolvent formulation after one month ([4]; room temperature): grew a darker color
appearance of cosolvent formulation after one month ([4]; −20°C and 4°C): remained light yellow, without any visible particles
Percentage Recovery, cosolvent formulation ([4]; −20°C, Day 7): 100.32 ± 0.08%
Percentage Recovery, cosolvent formulation ([4]; −20°C, Day 15): 101.22 ± 0.27%
Percentage Recovery, cosolvent formulation ([4]; −20°C, Day 30): 101.26 ± 0.39%
remaining at 1 h, 10 μM [5]: > 90%
Phase I metabolism (UPLC peaks) (rat liver microsomes): undergoes Phase I metabolism; also recorded: underwent Phase I metabolism; also recorded: at least four additional peaks appeared
stability in rat urine (in words) [6]: stable
Stability at -20 °C (48 hrs) in rat urine ([6]; 25 ng/ml): 109.28 ± 2.57
Stability at -20 °C (48 hrs) in rat urine ([6]; 50 ng/ml): 110.25 ± 2.36
Stability at -20 °C (48 hrs) in rat urine ([6]; 500 ng/ml): 105.71 ± 3.76
Stability at -20 °C (48 hrs) in rat urine ([6]; 1000 ng/ml): 101.43 ± 2.58
migratory capability of DU145 cells (DU145): significant reduction
HDACi and antiandrogen effects on cell migration in LNCaP cells (LNCaP cells): blocked
